Patent US10710988B2, “Piperazine derivative” (Astellas Pharma Inc., priority 2016, dated 2020)

Key:
[1] = biological target: T1, human MC4 receptor (Homo sapiens, UniProt P32245); assay: Human MC4 receptor activation, cAMP production in cells transiently expressing the receptor; format: cell-based; conditions: FreeStyle 293-F cells expressing human MC4 receptor, α-MSH maximum = 100%
T1 construct: expressed in transfected cells; host or cells: FreeStyle 293-F cells (transient, electroporation)
Text: (1) Construction of Human MC Receptor-Expressing Vector
A human MC4 receptor gene (GenBank Accession No.: NM_005912.2), a human MC1 receptor gene (GenBank Accession No.: NM_002386.3), or a human MC3 receptor gene (GenBank Accession No.: NM_019888.3) was introduced into an expression vector pcDNA™ 3.1N/V5-His TOPO (registered trademark) (Thermo Fisher Scientific Inc).
(2) Construction of Cells Transiently Expressing Human MC Receptor
(§1) An expression vector for a human MC4, MC1, or MC3 receptor was introduced into FreeStyle™ 293-F cells (Thermo Fisher Scientific Inc., product number: R790-07). For the introduction, electroporation was employed. That is, 1×10^7 FreeStyle™ 293-F cells were suspended in 80 μL of an Electroporation Buffer (Thermo Fisher Scientific Inc., product number: B201-100), and 20 μg of the expression vector was added thereto. The resultant was put into a cuvette (OC-100 Processing Assembly, MaxCyte, Inc.) and electroporated with MaxCyte STX (registered trademark) (MaxCyte, Inc.). The cells were cultured for a day, suspended in a Cell Banker (registered trademark) 1 (TAKARA BIO INC. or JUJI FIELD Inc., product number: BLC-1), and stored frozen until they were used.
(§2) (3) Measurement of Amount of cAMP Production
Measurement was carried out by using a LANCE (registered trademark) Ultra cAMP Kit (PerkinElmer, Inc.) in accordance with the attached instructions. That is, after dissolution in DMSO, the test compound (a final concentration of 1 pM to 30 μM) diluted with an assay buffer (Hank's balanced salt solution, 5 mM 4-(2-hydroxyethyl)-1-piperazineethanesulfonic acid (HEPES), 0.5 mM 3-isobutyl-1-methylxanthine (IBMX), 0.1% bovine serum albumin, pH 7.4), or α-MSH (Bachem Inc., a final concentration of 1 pM to 30 μM) was added to OptiPlate-384 (PerkinElmer, Inc.). Furthermore, the suspension of the cells transiently expressing the human MC4, MC1, or MC3 receptor prepared using the assay buffer was added thereto at 1,000 cells/well, and then left to stand at room temperature for about 1 hour. Thereafter, an Eu-cAMP tracer solution and an ULight™-anti-cAMP solution were added thereto, and then the resulting solution was left to stand at room temperature for about 1 hour. The amount of cAMP was calculated using EnVision (registered trademark) (PerkinElmer Inc.).
For the agonistic activity, the efficacy (EC50 (μM)) was calculated by a non-linear regression method with a Sigmoid-Emax model, by defining the maximum reaction using α-MSH as 100% and the reaction using the vehicle alone as 0%, respectively.

[2] = biological target: T2, rat MC4 receptor (Rattus norvegicus, UniProt P70596); assay: Rat MC4 receptor activation, cAMP production in cells transiently expressing the receptor; format: cell-based; conditions: FreeStyle 293-F cells expressing rat MC4 receptor, α-MSH maximum = 100%
T2 construct: expressed in transfected cells; host or cells: FreeStyle 293-F cells (transient, electroporation)
Text: (1) Construction of Rat MC4 Receptor-Expressing Vector
A rat MC4 receptor gene (GenBank Accession No.: NM_013099.3) was introduced into an expression vector pcDNA™ 3.1N/V5-His TOPO (registered trademark) (Thermo Fisher Scientific Inc.).
(2) Construction of Cells Transiently Expressing Rat MC4 Receptor
as §1, with “rat MC4” for “human MC4, MC1, or MC3”, “Inc.).” for “Inc., product number: R790-07).”, “electroporation buffer” for “Electroporation Buffer”, “Inc.),” for “Inc., product number: B201-100),”, “Inc.),” for “Inc., product number: BLC-1),”
as §2
Measurement was carried out in accordance with the attached instructions, using a LANCE (registered trademark) Ultra cAMP Kit (PerkinElmer, Inc.). That is, after dissolution in DMSO, the test compound (a final concentration of 1 pM to 30 μM) diluted with an assay buffer (Hank's balanced salt solution, 5 mM HEPES, 0.5 mM IBMX, 0.1% bovine serum albumin, pH 7.4), or α-MSH (Bachem Inc., a final concentration of 1 pM to 30 μM) was added to OptiPlate-384 (PerkinElmer, Inc.). Furthermore, the suspension of the cells transiently expressing the rat MC receptor that was prepared using the assay buffer was added thereto at 1,000 cells/well, and then left to stand at room temperature for about 1 hour. Thereafter, an Eu-cAMP tracer solution and an ULight™-anti-cAMP solution were added thereto, and the resulting solution was left to stand at room temperature for about 1 hour. The amount of cAMP was calculated using EnVision (registered trademark) (PerkinElmer Inc).
For the agonistic activity, an efficacy (EC50 (μM)) was calculated by a non-linear regression method with a Sigmoid-Emax model, by defining the maximum reaction using α-MSH as 100% and the reaction using a vehicle alone as 0%, respectively.

[3] = system: drug-induced voiding dysfunction model rat; assay: Effect on drug-induced voiding dysfunction model rat; format: in vivo; conditions: male SD rats; atropine sulfate + midodrine hydrochloride induced voiding dysfunction; inhibition of decrease in voiding efficiency or increase of residual urine; P<0.05
Text: Male Sprague Dawley (SD) rats (Japan SLC, Inc.) were anesthetized with isoflurane and a cannula was placed in the bladder, the stomach, and the jugular vein. Then, the rats were awakened in a Baellman cage (Natsume Seisakusho Co., Ltd.). After a post-operative stabilization period, physiological saline was continuously infused into the bladder by an infusion pump (Terumo Corporation, product number: TE-331 S, STC-528) to induce voiding. Infusion of the physiological saline was stopped as soon as the voiding began, and the amount of the voided urine was measured using an electronic top-loading balance installed under the Ballman cage. After voiding ended, the residual urine was collected by gravity through the cannula implanted into the bladder and weighed, and the weight was taken as the amount of the residual urine. Furthermore, the intravesical pressure was measured by a pressure transducer (Nihon Kohden Corporation, product numbers: DX-100) through the bladder cannula. The test compound or the vehicle was administered into the stomach, and atropine sulfate (Sigma-Aldrich Co. LLC., 0.01 mg/kg) as an anticholinergic drug and midodrine hydrochloride (Sigma-Aldrich Co. LLC., 0.3 mg/kg) as an a adrenergic receptor agonist were intravenously administered to induce voiding dysfunction. The voiding efficiency (=[voided amount/(voided amount+amount of residual urine)]×100) and the amount of the residual urine before and after the administration of the test compound or the vehicle were measured, and the amount changed was evaluated. The value obtained by the administration of the vehicle and the value obtained by the administration of the test compound were compared in a Dunnett's multiple comparison test with a statistically significant difference (P<0.05), and the minimum dose at which the inhibitory action on a decrease in voiding efficiency or on an increase of the amount of residual urine observed was defined as a minimum effective dose (4 rats per group).

T1 sequence (P32245 whole entry): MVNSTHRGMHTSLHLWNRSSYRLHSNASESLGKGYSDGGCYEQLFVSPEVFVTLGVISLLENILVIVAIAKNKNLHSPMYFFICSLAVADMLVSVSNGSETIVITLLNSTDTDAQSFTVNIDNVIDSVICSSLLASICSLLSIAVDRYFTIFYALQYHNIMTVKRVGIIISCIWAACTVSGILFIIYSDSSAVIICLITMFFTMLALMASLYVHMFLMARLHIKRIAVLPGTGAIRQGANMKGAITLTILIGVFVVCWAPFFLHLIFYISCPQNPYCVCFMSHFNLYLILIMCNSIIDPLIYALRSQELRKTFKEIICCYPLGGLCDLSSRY
T2 sequence (P70596 whole entry): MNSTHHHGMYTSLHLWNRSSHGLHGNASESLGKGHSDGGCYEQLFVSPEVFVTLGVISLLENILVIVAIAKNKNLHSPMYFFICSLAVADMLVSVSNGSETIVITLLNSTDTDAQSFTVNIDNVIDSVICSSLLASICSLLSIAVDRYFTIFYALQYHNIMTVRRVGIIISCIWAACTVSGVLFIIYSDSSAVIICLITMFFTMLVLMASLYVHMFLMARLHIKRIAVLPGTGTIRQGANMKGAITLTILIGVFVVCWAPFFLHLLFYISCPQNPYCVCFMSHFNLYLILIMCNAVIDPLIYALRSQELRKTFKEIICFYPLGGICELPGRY

| Structure (SMILES) | EC50 [1] [nM] | EC50 [2] [nM] | MED (minimum effective dose) [3] [mg/kg ig] |
| --- | --- | --- | --- |
| CC(=O)N[C@@H](CC(C)(C)C)C(=O)N1C[C@H](C)N(C(=O)[C@@H]2CN(C(C)(C)C)C[C@H]2c2ccc(F)cc2F)C[C@H]1C.Cl [Example 4, N-{(2S)-1-[(2R,5S)-4-{[(3 S,4R)-1-tert-butyl-4-(2,4-difluorophenyl)pyrrolidin-3-yl]carbonyl}-2,5-dimethylpiperazin-1-yl]-4,4-dimethyl-1-oxopentan-2-yl}acetamide monohydrochloride] | 6.8 | 2 | 0.01 |
| CC(=O)N[C@@H](CC(C)C)C(=O)N1CCN(C(=O)[C@@H]2CN(C(C)(C)C)C[C@H]2c2ccc(Cl)cc2F)C[C@H]1C [Example 5] | 6 | 3.3 | 0.01 |
| CC(=O)N[C@H](C(=O)N1CCN(C(=O)[C@@H]2CN(C(C)(C)C)C[C@H]2c2ccc(F)cc2F)[C@@H](C)C1)C1CCCCC1.Cl [Example 6, N-{(1S)-2-[(3S)-4-{[(3S,4R)-1-tert-butyl-4-(2,4-difluorophenyl)pyrrolidin-3-yl]carbonyl}-3-methylpiperazin-1-yl]-1-cyclohexyl-2-oxoethyl}acetamide monohydrochloride] | 19 | 16 | 0.03 |
| CC(=O)N[C@@H](CC(C)(C)C)C(=O)N1CCN(C(=O)[C@@H]2CN(C(C)(C)C)C[C@H]2c2ccc(F)cc2F)[C@@H](C)C1.Cl [Example 8] | 10 | 4.7 | 0.01 |
| CC(=O)N[C@@H](CC(C)(C)C)C(=O)N1C[C@H](C)N(C(=O)C2CN(C(C)(C)C)CC2c2ccc(F)cc2)C[C@H]1C.Cl (stereo partly drawn) [Example 11] | 11 | 10 | 0.03 |
